Experimental data published in ChEMBL document CHEMBL1201862, “PubChem BioAssay data set” (2004).
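The compound was tested at five concentrations on cells cultured in 96-well plates, with a 48-hour exposure period. GI50: concentration for 50% inhibition of growth.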 Active and inactive are the calls of the source. Cut-off read from the data, not from the text of the source: active = GI50 up to about 1.1 µM and inactive = higher.

Assays:
Test in all cases: growth of human tumour cells (NCI), 48 h
A498 = tested on: A498
ACHN = tested on: ACHN
HCT-116 = tested on: HCT-116
HOP-62 = tested on: HOP-62
HT-29 = tested on: HT-29
IGROV-1 = tested on: IGROV-1
K562 = tested on: K562
M14 = tested on: M14
MDA-MB-435 = tested on: MDA-MB-435
MDA-N = tested on: MDA-N
MOLT-4 = tested on: MOLT-4
NCI/ADR-RES = tested on: NCI/ADR-RES
OVCAR-3 = tested on: OVCAR-3
SF-295 = tested on: SF-295
SF-539 = tested on: SF-539
SK-MEL-2 = tested on: SK-MEL-2
SN12C = tested on: SN12C
SW-620 = tested on: SW-620
T47D = tested on: T47D
UACC-62 = tested on: UACC-62

| SMILES | GI50 (A498) | GI50 (ACHN) | GI50 (HCT-116) | GI50 (HOP-62) | GI50 (HT-29) | GI50 (IGROV-1) | GI50 (K562) | GI50 (M14) | GI50 (MDA-MB-435) | GI50 (MDA-N) | GI50 (MOLT-4) | GI50 (NCI/ADR-RES) | GI50 (OVCAR-3) | GI50 (SF-295) | GI50 (SF-539) | GI50 (SK-MEL-2) | GI50 (SN12C) | GI50 (SW-620) | GI50 (T47D) | GI50 (UACC-62) |
| --- | --- | --- | --- | --- | --- | --- | --- | --- | --- | --- | --- | --- | --- | --- | --- | --- | --- | --- | --- | --- |
| NCCNC(=O)CN(CC(=O)O)C1CCCCC1N(CC(=O)O)CC(=O)O (stereo not given) | > 100 µM (inactive) | > 100 µM (inactive) | > 100 µM (inactive) | > 100 µM (inactive) | > 100 µM (inactive) | > 100 µM (inactive) | > 100 µM (inactive) | > 100 µM (inactive) | > 100 µM (inactive) | > 100 µM (inactive) | > 100 µM (inactive) | > 100 µM (inactive) | > 100 µM (inactive) | > 100 µM (inactive) | > 100 µM (inactive) | > 100 µM (inactive) | > 100 µM (inactive) | > 100 µM (inactive) | > 100 µM (inactive) | > 100 µM (inactive) |
| CCN(CC)CCNc1ccc2ncn3c4ccc(O)cc4c(=O)c1c23 | 1.12 µM (inactive) | 0.0499 µM (active) | 0.212 µM (active) | 0.141 µM (active) | 0.679 µM (active) | 0.479 µM (active) | 1.04 µM (active) | 1.28 µM (inactive) | 3.67 µM (inactive) | 4.19 µM (inactive) | 0.0146 µM (active) | 2.81 µM (inactive) | 3.55 µM (inactive) | 0.216 µM (active) | 0.458 µM (active) | 6.78 µM (inactive) | 0.22 µM (active) | 0.216 µM (active) | 12.2 µM (inactive) | 1.25 µM (inactive) |
| CCOC(=O)C12CC(C)=C(C)CC1CCCc1ccccc12 (stereo not given) | 23 µM (inactive) | 18.8 µM (inactive) | 14.7 µM (inactive) | 38.3 µM (inactive) | 16.9 µM (inactive) | 26.4 µM (inactive) | 21.2 µM (inactive) | 30.3 µM (inactive) | 27.2 µM (inactive) | 26 µM (inactive) | 18 µM (inactive) | 39.4 µM (inactive) | 17.5 µM (inactive) | 25.1 µM (inactive) | 28.2 µM (inactive) | 15.5 µM (inactive) | 23.4 µM (inactive) | 20.8 µM (inactive) | 15 µM (inactive) | 21.9 µM (inactive) |
| Nc1c(-c2cccc3ccccc23)c2ccc([N+](=O)[O-])cc2c(=O)n1-c1nc2ccccc2s1 | 7.66 µM (inactive) | 3.16 µM (inactive) | 5.13 µM (inactive) | 7.21 µM (inactive) | 5.02 µM (inactive) | 3.41 µM (inactive) | 6.93 µM (inactive) | 11.7 µM (inactive) | 9.38 µM (inactive) | 7.13 µM (inactive) | 3.03 µM (inactive) | 2.26 µM (inactive) | 3.94 µM (inactive) | 5.53 µM (inactive) | 2.2 µM (inactive) | 3.82 µM (inactive) | 6.27 µM (inactive) | 11.2 µM (inactive) | 3.37 µM (inactive) | 5.6 µM (inactive) |
| O=[N+]([O-])c1ccc(NN/N=N/c2ccc(-c3nc4ccccc4s3)cc2)c([N+](=O)[O-])c1 | 4.34 µM (inactive) | 22.2 µM (inactive) | 17.5 µM (inactive) | 21.9 µM (inactive) | 18.8 µM (inactive) | 19.9 µM (inactive) | 22.7 µM (inactive) | 18.2 µM (inactive) | 24.1 µM (inactive) | 19 µM (inactive) | 13.7 µM (inactive) | 25.1 µM (inactive) | 19.8 µM (inactive) | 19.5 µM (inactive) | 18.8 µM (inactive) | 21 µM (inactive) | 22.6 µM (inactive) | 37.6 µM (inactive) | 19.1 µM (inactive) | 14 µM (inactive) |
| Cc1ccc(S(=O)(=O)N2CCC(=O)c3cc(Br)ccc32)cc1 | 15 µM (inactive) | 16.8 µM (inactive) | 4.72 µM (inactive) | 7.16 µM (inactive) | 6.25 µM (inactive) | 6.1 µM (inactive) | 4.57 µM (inactive) | 5.06 µM (inactive) | 1.79 µM (inactive) | 3.01 µM (inactive) | 4.51 µM (inactive) | 6.56 µM (inactive) | 9.93 µM (inactive) | 10.1 µM (inactive) | 5 µM (inactive) | 10.3 µM (inactive) | 12.9 µM (inactive) | 6.04 µM (inactive) | 23.1 µM (inactive) | 5.21 µM (inactive) |
| CC(C)Cc1ccc(C(C)CC2=CCC(CN(C)C)C2=O)cc1 (stereo not given) | 18.5 µM (inactive) | 16.7 µM (inactive) | 4.17 µM (inactive) | 21.1 µM (inactive) | 6.38 µM (inactive) | 9.51 µM (inactive) | 2.25 µM (inactive) | 4.7 µM (inactive) | 8.13 µM (inactive) | 5.75 µM (inactive) | 2.34 µM (inactive) | 16.9 µM (inactive) | 11.2 µM (inactive) | 17.1 µM (inactive) | 16.3 µM (inactive) | 13.2 µM (inactive) | 9.1 µM (inactive) | 2.12 µM (inactive) | 1.86 µM (inactive) | 10 µM (inactive) |
| CCCCCCCC(CC(=O)O)OC(=O)CC(CCCCCCC)OC1OC(C)C(O)C(O)C1OC1OC(C)C(O)C(O)C1O (stereo not given) | > 100 µM (inactive) | > 100 µM (inactive) | > 100 µM (inactive) | > 100 µM (inactive) | > 100 µM (inactive) | 62.2 µM (inactive) | 72.1 µM (inactive) | > 100 µM (inactive) | > 100 µM (inactive) | > 100 µM (inactive) | > 100 µM (inactive) | > 100 µM (inactive) | > 100 µM (inactive) | > 100 µM (inactive) | 39 µM (inactive) | > 100 µM (inactive) | > 100 µM (inactive) | > 100 µM (inactive) | > 100 µM (inactive) | > 100 µM (inactive) |
| COc1ccc(CN(CCc2c[nH]c3ccccc23)Cc2ccc(OC)cc2)cc1 | 4.24 µM (inactive) | 3.37 µM (inactive) | 0.83 µM (active) | 3.01 µM (inactive) | 1.29 µM (inactive) | 1.8 µM (inactive) | 4.75 µM (inactive) | 2.8 µM (inactive) | 2.76 µM (inactive) | 1.92 µM (inactive) | > 21 µM (inactive) | 3.2 µM (inactive) | 3.23 µM (inactive) | 1.15 µM (inactive) | 1.56 µM (inactive) | 3.9 µM (inactive) | 0.968 µM (active) | 4.19 µM (inactive) | 1.33 µM (inactive) | 2.14 µM (inactive) |
| COc1cc2oc(=O)ccc2cc1C(=O)CC(C)C | > 100 µM (inactive) | > 100 µM (inactive) | > 100 µM (inactive) | > 100 µM (inactive) | > 100 µM (inactive) | > 100 µM (inactive) | > 100 µM (inactive) | > 100 µM (inactive) | > 100 µM (inactive) | > 100 µM (inactive) | 57.8 µM (inactive) | 66.4 µM (inactive) | > 100 µM (inactive) | > 100 µM (inactive) | > 100 µM (inactive) | > 100 µM (inactive) | > 100 µM (inactive) | > 100 µM (inactive) | > 100 µM (inactive) | > 100 µM (inactive) |
| O=C1c2cc([N+](=O)[O-])sc2C(=O)c2ccsc21 | 2.14 µM (inactive) | 0.281 µM (active) | 0.293 µM (active) | 0.227 µM (active) | 0.665 µM (active) | 0.413 µM (active) | 0.0216 µM (active) | 0.258 µM (active) | 0.177 µM (active) | 0.191 µM (active) | 0.215 µM (active) | 0.824 µM (active) | 0.0392 µM (active) | 0.354 µM (active) | 0.365 µM (active) | 1.06 µM (active) | 0.327 µM (active) | 0.245 µM (active) | 0.478 µM (active) | 0.204 µM (active) |
| COc1ccc(N2C(=O)/C(=C/c3ccc(N(CCC#N)CCC#N)cc3)N=C2c2ccccc2)cc1 | > 100 µM (inactive) | > 100 µM (inactive) | > 100 µM (inactive) | > 100 µM (inactive) | > 100 µM (inactive) | > 100 µM (inactive) | > 100 µM (inactive) | > 100 µM (inactive) | > 100 µM (inactive) | > 100 µM (inactive) | > 100 µM (inactive) | > 100 µM (inactive) | > 100 µM (inactive) | > 100 µM (inactive) | > 100 µM (inactive) | > 100 µM (inactive) | > 100 µM (inactive) | > 100 µM (inactive) | > 100 µM (inactive) | > 100 µM (inactive) |
| C/C(=N\c1cccc(Cl)c1)c1ccncc1 | > 100 µM (inactive) | > 100 µM (inactive) | > 100 µM (inactive) | > 100 µM (inactive) | > 100 µM (inactive) | > 100 µM (inactive) | > 100 µM (inactive) | > 100 µM (inactive) | > 100 µM (inactive) | > 100 µM (inactive) | > 100 µM (inactive) | > 100 µM (inactive) | > 100 µM (inactive) | > 100 µM (inactive) | > 100 µM (inactive) | > 100 µM (inactive) | > 100 µM (inactive) | > 100 µM (inactive) | > 100 µM (inactive) | 28.3 µM (inactive) |
| Nn1c(Nc2ccc(S(N)(=O)=O)cc2)nnc(/C=C/c2c(O)ccc3ccccc23)c1=O | 26.7 µM (inactive) | 30.3 µM (inactive) | 16.3 µM (inactive) | 20.3 µM (inactive) | 19.9 µM (inactive) | 0.128 µM (active) | 17 µM (inactive) | 26.4 µM (inactive) | 20.4 µM (inactive) | 16.3 µM (inactive) | 0.234 µM (active) | 16.3 µM (inactive) | 13 µM (inactive) | 24.3 µM (inactive) | 35.7 µM (inactive) | 39.8 µM (inactive) | 11.6 µM (inactive) | 16.4 µM (inactive) | 15 µM (inactive) | 18.7 µM (inactive) |
